The viability is a per cent measure of how many cells are alive, often set against a control.

For data set [1], the system named is MDA-MB-231 (human breast cancer) cell line. Briefly: MTT cell viability assay in MDA-MB-231 cells. As to conditions: 72 h, positive control at 20 nM. Format: cell-based. As to the method: Thus, we screened the synthesized library of pyrazolo[1,5-a]pyrimidin-7-ols 4a–4i. Anticancer activity (in terms of growth inhibition/decreased cell viability with respect to control) of all synthesized compounds (n = 9) was investigated by MTT assay in MDA-MB-231 (human breast cancer) cell line at different concentrations for 72 h. […] Thus, it was aimed to investigate the anticancer activity of a synthesized library of triazole-linked glycohybrids of pyrazolo[1,5-a]pyrimidines. […] The MTT assay was used to investigate the anticancer activity of twenty-seven synthesized compounds on the growth inhibition and decrement in cell viability of MDA-MB-231 (human breast cancer). Different concentrations were tested for 72 h, and the results were compared to a control. MDA-MB-231, a human breast cancer cell line, was cultured under standard conditions. Specifically, they were grown in Dulbecco’s Modified Eagle’s Medium (DMEM) supplemented with 10% heat-inactivated Fetal Bovine Serum (FBS) and 1% penicillin–streptomycin. The cells were maintained as a monolayer in a 100 mm culture plate and were used for experiments before reaching their 8th passage. Subculturing was performed every third-day using trypsin EDTA treatment. All incubation and maintenance procedures were carried out in a humidified CO2 incubator at 37 °C. To evaluate cell viability, the MTT assay was conducted following standard procedures. After 72 h of cell incubation with or without each compound, cell viability was assessed using MTT (3-(4,5-dimethylthiazol-2-yl)-2,5-diphenyltetrazolium bromide), which is a colorimetric method for determining the number of viable cells in various assays including proliferation, cytotoxicity, or chemosensitivity. The MTT reagent was added to the cells after removal of the medium and incubated for 3 h at 37 °C in the CO2 incubator. The formazan product, which is […] in the tissue culture medium, was dissolved in DMSO, and the absorbance of the formazan product was directly measured at 595 nm using a multimode plate reader without additional processing. The absorbance values are directly proportional to the number of viable cells in culture. The percentage of viable cells in each group was determined relative to the untreated control cells.

The subject of data set [2] is MCF-7 (hormone receptor/HR-positive breast cancer cells). Description: MTT cell viability assay in MCF-7 cells. Particulars: Homo sapiens, MCF7; MCF-7, positive control at 20 nM; read-out: Cell viability (%) ± SD. It is filed as cell-based. Here is the method: MDA-MB-231 represents a specific subtype known as triple-negative breast cancer (TNBC). The investigation study was extended with active six hit compounds (9a, 9d, 9h, 10d, 10f, and 11g) in two other different cancer cell lines (MCF-7 and MDA-MB-453), each representing a separate class of breast cancers (MCF-7: hormone receptor/HR-positive; MDA-MB-453: human epidermal growth factor 2 receptor/HER2 positive).
We also included normal mammary epithelial MCF-10A cells in our experiments to confirm if the growth-inhibitory activities of the selected compounds are truly cancer cell-specific. The activity data from MCF-7 and MDA-MB-453 cell lines (tested at 1 µM, 10 µM and 25 µM) and activity data from MCF-10A cell line (tested at 25 µM, 50 µM and 100 µM) are summarized in Table 3.
To evaluate cell viability, the MTT assay was conducted following standard procedures. After 72 h of cell incubation with or without each compound, cell viability was assessed using MTT (3-(4,5-dimethylthiazol-2-yl)-2,5-diphenyltetrazolium bromide), which is a colorimetric method for determining the number of viable cells in various assays including proliferation, cytotoxicity, or chemosensitivity. The MTT reagent was added to the cells after removal of the medium and incubated for 3 h at 37 °C in the CO2 incubator. The formazan product, which is […] in the tissue culture medium, was dissolved in DMSO, and the absorbance of the formazan product was directly measured at 595 nm using a multimode plate reader without additional processing. The absorbance values are directly proportional to the number of viable cells in culture. The percentage of viable cells in each group was determined relative to the untreated control cells.
A general note: Tetrazolium assays rely on reduction of a dye to a coloured formazan, in cell work by metabolically active cells.

Data set [3] deals with MDA-MB-453 (HER2 positive breast cancer cells). Briefly: MTT cell viability assay in MDA-MB-453 cells. Format: cell-based, human. As to conditions: Homo sapiens; MDA-MB-453, positive control at 20 nM; read-out: Cell viability (%) ± SD. As to the method:
MDA-MB-231 represents a specific subtype known as triple-negative breast cancer (TNBC). The investigation study was extended with active six hit compounds (9a, 9d, 9h, 10d, 10f, and 11g) in two other different cancer cell lines (MCF-7 and MDA-MB-453), each representing a separate class of breast cancers (MCF-7: hormone receptor/HR-positive; MDA-MB-453: human epidermal growth factor 2 receptor/HER2 positive). […] We also included normal mammary epithelial MCF-10A cells in our experiments to confirm if the growth-inhibitory activities of the selected compounds are truly cancer cell-specific. The activity data from MCF-7 and MDA-MB-453 cell lines (tested at 1 µM, 10 µM and 25 µM) and activity data from MCF-10A cell line (tested at 25 µM, 50 µM and 100 µM) are summarized in Table 3. To evaluate cell viability, the MTT assay was conducted following standard procedures. After 72 h of cell incubation with or without each compound, cell viability was assessed using MTT (3-(4,5-dimethylthiazol-2-yl)-2,5-diphenyltetrazolium bromide), which is a colorimetric method for determining the number of viable cells in various assays including proliferation, cytotoxicity, or chemosensitivity. The MTT reagent was added to the cells after removal of the medium and incubated for 3 h at 37 °C in the CO2 incubator. The formazan product, which is […] in the tissue culture medium, was dissolved in DMSO, and the absorbance of the formazan product was directly measured at 595 nm using a multimode plate reader without additional processing. The absorbance values are directly proportional to the number of viable cells in culture. The percentage of viable cells in each group was determined relative to the untreated control cells.

Data set [4] can be described thus: MTT cell viability assay in normal MCF-10A cells. Format: cell-based. Particulars: human, MCF-10A normal mammary epithelial cells; MCF-10A normal cells, positive control at 20 nM; read-out: Cell viability (%) ± SD. Here is the method: We also included normal mammary epithelial MCF-10A cells in our experiments to confirm if the growth-inhibitory activities of the selected compounds are truly cancer cell-specific. The activity data from MCF-7 and MDA-MB-453 cell lines (tested at 1 µM, 10 µM and 25 µM) and activity data from MCF-10A cell line (tested at 25 µM, 50 µM and 100 µM) are summarized in Table 3. To evaluate cell viability, the MTT assay was conducted following standard procedures. After 72 h of cell incubation with or without each compound, cell viability was assessed using MTT (3-(4,5-dimethylthiazol-2-yl)-2,5-diphenyltetrazolium bromide), which is a colorimetric method for determining the number of viable cells in various assays including proliferation, cytotoxicity, or chemosensitivity. The MTT reagent was added to the cells after removal of the medium and incubated for 3 h at 37 °C in the CO2 incubator. The formazan product, which is […] in the tissue culture medium, was dissolved in DMSO, and the absorbance of the formazan product was directly measured at 595 nm using a multimode plate reader without additional processing. The absorbance values are directly proportional to the number of viable cells in culture. The percentage of viable cells in each group was determined relative to the untreated control cells.

Where two headings read alike, the source gives them in different places.

With `COCCn1c2c([n+](Cc3cnccn3)c1C)C(=O)c1ccccc1C2=O` [YM155, reference compound], the viability at 0.02 µM came to 20.4 ± 5.13% in data set [1] (Table 1, MDA-MB-231, MTT, read-out: Cell Viability (%) ± SD); 26.4 ± 3.93% in data set [1] (Table 2, MDA-MB-231, MTT, read-out: Cell viability (%) ± SD); 32.2 ± 1.7% in data set [2]; 35.2 ± 1.5% in data set [3]. Further, the viability at 72 h, 0.02 µM in data set [4] was 38.2 ± 1.6%.

The values are drawn from paper PMC10766964, “Copper-catalyzed synthesis of pyrazolo[1,5-a]pyrimidine based triazole-linked glycohybrids: mechanistic insights and bio-applications” (Scientific Reports, 2024).
